Measurements reported in patent publication US12502362B2, “Inhibitors of nucleotidyltransferase superfamily enzymes as antibiotics” (priority 2017, dated 2025).
Where two headings read alike, the source gives them in different places.

Legend:
Klebsiella pneumonia = assay: Antibiotic susceptibility of Klebsiella pneumonia strains; assay type: cell-based
Text: (§1) All these MDR-bacteria are at least resistant to two classes of the antibiotics among five groups and/or specific antibiotics including quinolones/fluorquinolones, carbapenems, cephalosporins, aminoglycosides and piperacillin-tazobactam.

Morganella morganii = assay: Antibiotic susceptibility of Morganella morganii strain; assay type: cell-based; conditions: Mm1 (Morganella morganii)
Text: as §1

[1] = system: Enterobacter cloacae complex; assay: Antibiotic susceptibility of Enterobacter cloacae complex strain; assay type: cell-based; conditions: Ecc1 (Enterobacter cloacae complex)
Text: as §1

[2] = system: Coagulase negative Staphylococcus; assay: Antibiotic susceptibility of coagulase negative Staphylococcus strains; assay type: cell-based
Citrobacter koseri = assay: Antibiotic susceptibility of Citrobacter koseri strain; assay type: cell-based; conditions: Ck1 (Citrobacter koseri)
Text: as §1

[3] = system: Staphylococcus epidermidis; assay type: cell-based
Protocol: (§2) It was also tested whether compounds #63 and #285 can inhibit other coagulase-negative Staphylococcus (CNS) including S. epidermidis, S. hominis, etc. […].

Staphylococcus hominis = assay type: cell-based
Protocol: as §2

MDR E. coli = assay type: cell-based
Text: as §1

[4] = system: MDR Acinetobacter baumannii; assay type: cell-based
Text: as §1

[5] = system: S. aureus ATCC strains and MRSA; assay type: cell-based, Staphylococcus aureus
[6] = CNS1 (Coagulase negative Staphylococcus)
[7] = CNS2 (Coagulase negative Staphylococcus)

O=C1CN(/N=C/c2ccc([N+](=O)[O-])o2)C(=O)N1 [NIT, Nitrofurantoin]
Antibiotic susceptibility (Klebsiella pneumonia; Kp1 (Klebsiella pneumonia)): S
Antibiotic susceptibility (Klebsiella pneumonia; Kp6 (Klebsiella pneumonia)): R
Antibiotic susceptibility (Morganella morganii): R
Antibiotic susceptibility [1]: S
Antibiotic susceptibility [2, 6]: S
Antibiotic susceptibility [2, 7]: S
Antibiotic susceptibility (Citrobacter koseri): R
Antibiotic susceptibility [3]: S
Antibiotic susceptibility (Staphylococcus hominis): S
Antibiotic susceptibility (MDR E. coli; Ec1 (E. coli)): S
Antibiotic susceptibility (MDR E. coli; Ec2 (E. coli)): S
Antibiotic susceptibility (MDR E. coli; Ec3 (E. coli)): S
Antibiotic susceptibility (MDR E. coli; Ec4 (E. coli)): S
Antibiotic susceptibility (MDR E. coli; Ec5 (E. coli)): S
Antibiotic susceptibility ([4]; Ab1 (Acinetobacter baumannii)): R
Antibiotic susceptibility ([4]; Ab2 (Acinetobacter baumannii)): R
Antibiotic susceptibility ([4]; Ab3 (Acinetobacter baumannii)): R
Antibiotic susceptibility ([4]; Ab4 (Acinetobacter baumannii)): R
Antibiotic susceptibility ([4]; Ab5 (Acinetobacter baumannii)): R
Antibiotic susceptibility ([5]; S. aureus ATCC 25923): S
Antibiotic susceptibility ([5]; S. aureus ATCC 29213): S
Antibiotic susceptibility ([5]; S. aureus ATCC BAA 976): S
Antibiotic susceptibility ([5]; S. aureus ATCC BAA 977): S
Antibiotic susceptibility ([5]; S. aureus ATCC BAA 1026): S
Antibiotic susceptibility ([5]; Sa1 (MRSA)): S
Antibiotic susceptibility ([5]; Sa2 (MRSA)): S
Antibiotic susceptibility ([5]; Sa3 (MRSA)): S
Antibiotic susceptibility ([5]; Sa6 (MRSA)): S
Antibiotic susceptibility ([5]; Sa7 (MRSA)): S
Antibiotic susceptibility ([5]; Sa9 (MRSA)): S
Antibiotic susceptibility ([5]; Sa11 (MRSA)): S
Antibiotic susceptibility ([5]; Sa12 (MRSA)): S
Antibiotic susceptibility ([5]; Sa14 (MRSA)): S
Antibiotic susceptibility ([5]; Sa15 (MRSA)): S
Antibiotic susceptibility ([5]; Sa16 (MRSA)): S
Antibiotic susceptibility ([5]; Sa17 (MRSA)): S
Antibiotic susceptibility ([5]; Sa18 (MRSA)): S
Antibiotic susceptibility ([5]; Sa19 (MRSA)): S
Antibiotic susceptibility ([5]; Sa20 (MRSA)): S
Antibiotic susceptibility ([5]; Sa21 (MRSA)): S
Antibiotic susceptibility ([5]; Sa22 (MRSA)): S
Antibiotic susceptibility ([5]; Sa23 (MRSA)): S

CO/N=C(\C(=O)N[C@@H]1C(=O)N2C(C(=O)O)=C(CSc3nc(=O)c(=O)[nH]n3C)CS[C@H]12)c1csc(N)n1 [CRO, Ceftriaxone]
Antibiotic susceptibility (Klebsiella pneumonia; Kp1 (Klebsiella pneumonia)): R
Antibiotic susceptibility (Klebsiella pneumonia; Kp6 (Klebsiella pneumonia)): R
Antibiotic susceptibility (Morganella morganii): I
Antibiotic susceptibility [1]: R
Antibiotic susceptibility (Citrobacter koseri): S
Antibiotic susceptibility (MDR E. coli; Ec1 (E. coli)): R
Antibiotic susceptibility (MDR E. coli; Ec2 (E. coli)): R
Antibiotic susceptibility (MDR E. coli; Ec3 (E. coli)): R
Antibiotic susceptibility (MDR E. coli; Ec4 (E. coli)): R
Antibiotic susceptibility (MDR E. coli; Ec5 (E. coli)): R
Antibiotic susceptibility ([4]; Ab1 (Acinetobacter baumannii)): R
Antibiotic susceptibility ([4]; Ab2 (Acinetobacter baumannii)): R
Antibiotic susceptibility ([4]; Ab3 (Acinetobacter baumannii)): R
Antibiotic susceptibility ([4]; Ab4 (Acinetobacter baumannii)): R
Antibiotic susceptibility ([4]; Ab5 (Acinetobacter baumannii)): R

C[C@@H](O)[C@H]1C(=O)N2C(C(=O)O)=C(SCCN=CN)C[C@H]12 [IPM, Imipenem]
Antibiotic susceptibility (Klebsiella pneumonia; Kp1 (Klebsiella pneumonia)): S
Antibiotic susceptibility (Klebsiella pneumonia; Kp6 (Klebsiella pneumonia)): S
Antibiotic susceptibility (Morganella morganii): S
Antibiotic susceptibility [1]: S
Antibiotic susceptibility (Citrobacter koseri): S
Antibiotic susceptibility (MDR E. coli; Ec1 (E. coli)): S
Antibiotic susceptibility (MDR E. coli; Ec2 (E. coli)): S
Antibiotic susceptibility (MDR E. coli; Ec3 (E. coli)): S
Antibiotic susceptibility (MDR E. coli; Ec4 (E. coli)): S
Antibiotic susceptibility (MDR E. coli; Ec5 (E. coli)): S
Antibiotic susceptibility ([4]; Ab1 (Acinetobacter baumannii)): S
Antibiotic susceptibility ([4]; Ab2 (Acinetobacter baumannii)): I
Antibiotic susceptibility ([4]; Ab3 (Acinetobacter baumannii)): I
Antibiotic susceptibility ([4]; Ab4 (Acinetobacter baumannii)): I
Antibiotic susceptibility ([4]; Ab5 (Acinetobacter baumannii)): R

Amoxicillin-clavulanic acid [AMC]
Antibiotic susceptibility (Klebsiella pneumonia; Kp1 (Klebsiella pneumonia)): S
Antibiotic susceptibility (Klebsiella pneumonia; Kp6 (Klebsiella pneumonia)): I
Antibiotic susceptibility (Morganella morganii): R
Antibiotic susceptibility [1]: R
Antibiotic susceptibility (Citrobacter koseri): I
Antibiotic susceptibility (MDR E. coli; Ec1 (E. coli)): S
Antibiotic susceptibility (MDR E. coli; Ec2 (E. coli)): S
Antibiotic susceptibility (MDR E. coli; Ec3 (E. coli)): S
Antibiotic susceptibility (MDR E. coli; Ec4 (E. coli)): S
Antibiotic susceptibility (MDR E. coli; Ec5 (E. coli)): I
Antibiotic susceptibility ([4]; Ab1 (Acinetobacter baumannii)): R
Antibiotic susceptibility ([4]; Ab2 (Acinetobacter baumannii)): R
Antibiotic susceptibility ([4]; Ab3 (Acinetobacter baumannii)): R
Antibiotic susceptibility ([4]; Ab4 (Acinetobacter baumannii)): R
Antibiotic susceptibility ([4]; Ab5 (Acinetobacter baumannii)): S

Gentamicin
Antibiotic susceptibility (Klebsiella pneumonia; Kp1 (Klebsiella pneumonia)): S
Antibiotic susceptibility (Klebsiella pneumonia; Kp6 (Klebsiella pneumonia)): S
Antibiotic susceptibility (Morganella morganii): R
Antibiotic susceptibility [1]: R
Antibiotic susceptibility [2, 6]: S
Antibiotic susceptibility [2, 7]: S
Antibiotic susceptibility (Citrobacter koseri): R
Antibiotic susceptibility ([3]; Se1 (Staphylococcus epidermidis)): S
Antibiotic susceptibility ([3]; Se2 (Staphylococcus epidermidis)): S
Antibiotic susceptibility ([3]; Se3 (Staphylococcus epidermidis)): R
Antibiotic susceptibility ([3]; Se4 (Staphylococcus epidermidis)): R
Antibiotic susceptibility ([3]; Se5 (Staphylococcus epidermidis)): I
Antibiotic susceptibility (Staphylococcus hominis; Sh1 (Staphylococcus hominis)): S
Antibiotic susceptibility (Staphylococcus hominis; Sh2 (Staphylococcus hominis)): S
Antibiotic susceptibility (Staphylococcus hominis; Sh3 (Staphylococcus hominis)): S
Antibiotic susceptibility (MDR E. coli; Ec1 (E. coli)): R
Antibiotic susceptibility (MDR E. coli; Ec2 (E. coli)): R
Antibiotic susceptibility (MDR E. coli; Ec3 (E. coli)): R
Antibiotic susceptibility (MDR E. coli; Ec4 (E. coli)): S
Antibiotic susceptibility (MDR E. coli; Ec5 (E. coli)): S
Antibiotic susceptibility ([4]; Ab1 (Acinetobacter baumannii)): S
Antibiotic susceptibility ([4]; Ab2 (Acinetobacter baumannii)): R
Antibiotic susceptibility ([4]; Ab3 (Acinetobacter baumannii)): R
Antibiotic susceptibility ([4]; Ab4 (Acinetobacter baumannii)): R
Antibiotic susceptibility ([4]; Ab5 (Acinetobacter baumannii)): R
Antibiotic susceptibility ([5]; S. aureus ATCC 25923): S
Antibiotic susceptibility ([5]; S. aureus ATCC 29213): S
Antibiotic susceptibility ([5]; S. aureus ATCC BAA 976): S
Antibiotic susceptibility ([5]; S. aureus ATCC BAA 977): S
Antibiotic susceptibility ([5]; S. aureus ATCC BAA 1026): R
Antibiotic susceptibility ([5]; Sa1 (MRSA)): S
Antibiotic susceptibility ([5]; Sa2 (MRSA)): S
Antibiotic susceptibility ([5]; Sa3 (MRSA)): S
Antibiotic susceptibility ([5]; Sa5 (MRSA)): S
Antibiotic susceptibility ([5]; Sa6 (MRSA)): S
Antibiotic susceptibility ([5]; Sa7 (MRSA)): S
Antibiotic susceptibility ([5]; Sa8 (MRSA)): S
Antibiotic susceptibility ([5]; Sa9 (MRSA)): S
Antibiotic susceptibility ([5]; Sa10 (MRSA)): S
Antibiotic susceptibility ([5]; Sa11 (MRSA)): S
Antibiotic susceptibility ([5]; Sa12 (MRSA)): S
Antibiotic susceptibility ([5]; Sa14 (MRSA)): S
Antibiotic susceptibility ([5]; Sa15 (MRSA)): S
Antibiotic susceptibility ([5]; Sa16 (MRSA)): S
Antibiotic susceptibility ([5]; Sa17 (MRSA)): S
Antibiotic susceptibility ([5]; Sa18 (MRSA)): S
Antibiotic susceptibility ([5]; Sa19 (MRSA)): S
Antibiotic susceptibility ([5]; Sa20 (MRSA)): S
Antibiotic susceptibility ([5]; Sa21 (MRSA)): S
Antibiotic susceptibility ([5]; Sa22 (MRSA)): S
Antibiotic susceptibility ([5]; Sa23 (MRSA)): S

Piperacillin-tazobactam [TZP]
Antibiotic susceptibility (Klebsiella pneumonia; Kp1 (Klebsiella pneumonia)): S
Antibiotic susceptibility (Klebsiella pneumonia; Kp6 (Klebsiella pneumonia)): R
Antibiotic susceptibility (Morganella morganii): S
Antibiotic susceptibility [1]: R
Antibiotic susceptibility (Citrobacter koseri): I
Antibiotic susceptibility (MDR E. coli; Ec1 (E. coli)): S
Antibiotic susceptibility (MDR E. coli; Ec2 (E. coli)): S
Antibiotic susceptibility (MDR E. coli; Ec3 (E. coli)): S
Antibiotic susceptibility (MDR E. coli; Ec4 (E. coli)): S
Antibiotic susceptibility (MDR E. coli; Ec5 (E. coli)): S
Antibiotic susceptibility ([4]; Ab3 (Acinetobacter baumannii)): R
